Calls of active or inactive are those of the source. No cut-off for these calls is given here.
Assays:
Plasmodium gallinaceum [1] = assay: Antimalarial activity against sporozoite-induced Plasmodium gallinaceum infected in white leghorn chicken assessed as increase in mean survival days of host at 30 mg/kg, sc administered 72 hrs after infection relative to control; assay type: functional; details: route subcutaneous
Plasmodium berghei [2] = assay: Antimalarial activity against Plasmodium berghei infected in mouse assessed as disease cure from parasite infection at 40 mg/kg, sc administered 72 hrs after infection; assay type: functional, organism-based; parameters: dose 40 mg/kg
Plasmodium gallinaceum [3] = assay: Antimalarial activity against trophozoite-induced Plasmodium gallinaceum infected in white leghorn chicken assessed as increase in mean survival days of host at 30 mg/kg, sc administered 72 hrs after infection relative to control; assay type: functional; details: route subcutaneous
Plasmodium gallinaceum [4] = assay: Antimalarial activity against sporozoite-induced Plasmodium gallinaceum infected in white leghorn chicken assessed as increase in mean survival days of host at 60 mg/kg, sc administered 72 hrs after infection relative to control; assay type: functional; details: route subcutaneous
Gallus gallus [5] = assay: Toxicity in trophozoite-induced Plasmodium gallinaceum infected white leghorn chicken assessed as mortality at 120 mg/kg, sc administered 72 hrs after infection measured after 48 hrs; assay type: organism-based; parameters: dose 120 mg/kg, route subcutaneous; details: in vivo
Plasmodium gallinaceum [6] = assay: Antimalarial activity against trophozoite-induced Plasmodium gallinaceum infected in white leghorn chicken assessed as disease cure from parasite infection at 120 mg/kg, sc administered 72 hrs after infection; assay type: functional, organism-based; parameters: dose 120 mg/kg
Plasmodium berghei [7] = assay: Antimalarial activity against trophozoite-induced Plasmodium berghei infected in mouse assessed as daily dose required to suppression of 90% parasite infection administered with diet for 6 days; assay type: functional
Mus musculus [8] = assay: Toxicity in Plasmodium berghei infected mouse assessed as mortality at 320 mg/kg, sc administered 72 hrs after infection measured after 2 to 5 days; assay type: organism-based; parameters: dose 320 mg/kg, route subcutaneous; details: in vivo
Gallus gallus [9] = assay: Toxicity in sporozoite-induced Plasmodium gallinaceum infected white leghorn chicken assessed as mortality at 480 mg/kg, sc administered 72 hrs after infection measured up to 6 days; assay type: organism-based; parameters: dose 480 mg/kg, route subcutaneous; details: in vivo
Plasmodium gallinaceum [10] = assay: Antimalarial activity against trophozoite-induced Plasmodium gallinaceum infected in white leghorn chicken assessed as disease cure from parasite infection at 60 mg/kg, sc administered 72 hrs after infection; assay type: functional, organism-based; parameters: dose 60 mg/kg
Plasmodium berghei [11] = assay: Antimalarial activity against Plasmodium berghei infected in mouse assessed as increase in mean survival days of host at 80 mg/kg, sc administered 72 hrs after infection relative to control; assay type: functional; details: route subcutaneous
Plasmodium gallinaceum [12] = assay: Antimalarial activity against trophozoite-induced Plasmodium gallinaceum infected in white leghorn chicken assessed as disease cure from parasite infection at 30 mg/kg, sc administered 72 hrs after infection; assay type: functional, organism-based; parameters: dose 30 mg/kg
Plasmodium berghei [13] = assay: Antimalarial activity against Plasmodium berghei infected in mouse assessed as increase in mean survival days of host at 20 mg/kg, sc administered 72 hrs after infection relative to control; assay type: functional; details: route subcutaneous
Plasmodium gallinaceum [14] = assay: Antimalarial activity against sporozoite-induced Plasmodium gallinaceum infected in white leghorn chicken assessed as increase in mean survival days of host at 15 mg/kg, sc administered 72 hrs after infection relative to control; assay type: functional; details: route subcutaneous
Gallus gallus [15] = assay: Toxicity in sporozoite-induced Plasmodium gallinaceum infected white leghorn chicken assessed as mortality at 60 mg/kg, sc administered 72 hrs after infection measured up to 6 days; assay type: organism-based; parameters: dose 60 mg/kg, route subcutaneous; details: in vivo
Gallus gallus [16] = assay: Toxicity in sporozoite-induced Plasmodium gallinaceum infected white leghorn chicken assessed as mortality at 240 mg/kg, sc administered 72 hrs after infection measured up to 6 days; assay type: organism-based; parameters: dose 240 mg/kg, route subcutaneous; details: in vivo
Plasmodium berghei [17] = assay: Antimalarial activity against DDS-resistant Plasmodium berghei assessed as drug resistance relative to control; assay type: functional
Plasmodium berghei [18] = assay: Antimalarial activity against Plasmodium berghei infected in mouse assessed as disease cure from parasite infection at 160 mg/kg, sc administered 72 hrs after infection; assay type: functional, organism-based; parameters: dose 160 mg/kg
Plasmodium berghei [19] = assay: Antimalarial activity against Plasmodium berghei infected in mouse assessed as disease cure from parasite infection at 80 mg/kg, sc administered 72 hrs after infection; assay type: functional, organism-based; parameters: dose 80 mg/kg
Plasmodium berghei [20] = assay: Antimalarial activity against Plasmodium berghei infected in mouse assessed as increase in mean survival days of host at 10 mg/kg, sc administered 72 hrs after infection relative to control; assay type: functional; details: route subcutaneous
Mus musculus [21] = assay: Toxicity in Plasmodium berghei infected mouse assessed as mortality at 640 mg/kg, sc administered 72 hrs after infection measured after 2 to 5 days; assay type: organism-based; parameters: dose 640 mg/kg, route subcutaneous; details: in vivo
Plasmodium berghei [22] = assay: Ratio of quinine hydrochloride SD90 to compound SD90 for trophozoite-induced Plasmodium berghei infected in mouse assessed as daily dose required to suppression of 90% parasite infection administered with diet for 6 days; assay type: functional
Plasmodium berghei [23] = assay: Antimalarial activity against Plasmodium berghei infected in mouse assessed as increase in mean survival days of host at 40 mg/kg, sc administered 72 hrs after infection relative to control; assay type: functional; details: route subcutaneous
Plasmodium gallinaceum [24] = assay: Antimalarial activity against trophozoite-induced Plasmodium gallinaceum infected in white leghorn chicken assessed as increase in mean survival days of host at 60 mg/kg, sc administered 72 hrs after infection relative to control; assay type: functional; details: route subcutaneous
Plasmodium gallinaceum [25] = assay: Antimalarial activity against trophozoite-induced Plasmodium gallinaceum infected in white leghorn chicken assessed as disease cure from parasite infection at 160 mg/kg, sc administered 72 hrs after infection; assay type: functional, organism-based; parameters: dose 160 mg/kg
Gallus gallus [26] = assay: Toxicity in sporozoite-induced Plasmodium gallinaceum infected white leghorn chicken assessed as mortality at 120 mg/kg, sc administered 72 hrs after infection measured up to 6 days; assay type: organism-based; parameters: dose 120 mg/kg, route subcutaneous; details: in vivo
Plasmodium berghei [27] = assay: Antimalarial activity against Plasmodium berghei infected in mouse assessed as disease cure from parasite infection at 320 mg/kg, sc administered 72 hrs after infection; assay type: functional, organism-based; parameters: dose 320 mg/kg

With `CC1(C)N=C(N)N=C(N)N1c1ccc(Cl)cc1.Cl` [CHLORCYCLOGUANIL HYDROCHLORIDE] as the compound, how does the MST (Plasmodium gallinaceum [1]) read?
The MST was 2.3 days.

And the Activity (Plasmodium berghei [2])?
Its Activity is “Active”.

And the MST (Plasmodium gallinaceum [3])?
Its MST is 11.7 days.

And the MST (Plasmodium gallinaceum [4])?
Its MST is 0 days.

What about the Activity (Gallus gallus [5]) of the same compound?
The Activity was “Toxic”.

And the Activity (Plasmodium gallinaceum [6])?
The Activity was “Active”.

And the SD90 (Plasmodium berghei [7])?
Its SD90 is 2.1 mg/kg/day.

And the Activity (Mus musculus [8])?
Its Activity is “Toxic”.

And the Activity (Gallus gallus [9])?
The Activity was “Toxic”.

What about the Activity (Plasmodium gallinaceum [10]) of the same compound?
The Activity was “Active”.

What about the MST (Plasmodium berghei [11]) of the same compound?
The MST was 21.6 days.

And the Activity (Plasmodium gallinaceum [12])?
The Activity was “Active”.

And the MST (Plasmodium berghei [13])?
The MST was 7.9 days.

What about the MST (Plasmodium gallinaceum [14]) of the same compound?
The MST was 0 days.

What about the Activity (Gallus gallus [15]) of the same compound?
The Activity was “Toxic”.

What about the Activity (Gallus gallus [16]) of the same compound?
The Activity was “Toxic”.

What about the “fold change (FC)” value (Plasmodium berghei [17]) of the same compound?
Its value is under 2.

What about the Activity (Plasmodium berghei [18]) of the same compound?
Its Activity is “Active”.

And the Activity (Plasmodium berghei [19])?
The Activity was “Active”.

And the MST (Plasmodium berghei [20])?
The MST was 4.9 days.

And the Activity (Mus musculus [21])?
Its Activity is “Toxic”.

What about the Ratio (Plasmodium berghei [22]) of the same compound?
Its Ratio is 35.

And the MST (Plasmodium berghei [23])?
Its MST is 13.4 days.

What about the MST (Plasmodium gallinaceum [24]) of the same compound?
The MST was 15.1 days.

What about the Activity (Plasmodium gallinaceum [25]) of the same compound?
The Activity was “Active”.

And the Activity (Gallus gallus [26])?
The Activity was “Toxic”.

And the Activity (Plasmodium berghei [27])?
Its Activity is “Active”.
